{"source": "patent US12673927B2", "about": "“Substituted aminothiazoles as DGKzeta inhibitors for immune activation” (Deutsches Krebsforschungszentrum, priority 2020, dated 2026)", "data": [{"molecular_target": "T1, human DGKζ (Homo sapiens, UniProt Q13574)", "T1 construct": "made in house; host or cells: Sf9 insect cells, baculovirus", "T1 sequence (Q13574 with tags, fused parts or gaps)": "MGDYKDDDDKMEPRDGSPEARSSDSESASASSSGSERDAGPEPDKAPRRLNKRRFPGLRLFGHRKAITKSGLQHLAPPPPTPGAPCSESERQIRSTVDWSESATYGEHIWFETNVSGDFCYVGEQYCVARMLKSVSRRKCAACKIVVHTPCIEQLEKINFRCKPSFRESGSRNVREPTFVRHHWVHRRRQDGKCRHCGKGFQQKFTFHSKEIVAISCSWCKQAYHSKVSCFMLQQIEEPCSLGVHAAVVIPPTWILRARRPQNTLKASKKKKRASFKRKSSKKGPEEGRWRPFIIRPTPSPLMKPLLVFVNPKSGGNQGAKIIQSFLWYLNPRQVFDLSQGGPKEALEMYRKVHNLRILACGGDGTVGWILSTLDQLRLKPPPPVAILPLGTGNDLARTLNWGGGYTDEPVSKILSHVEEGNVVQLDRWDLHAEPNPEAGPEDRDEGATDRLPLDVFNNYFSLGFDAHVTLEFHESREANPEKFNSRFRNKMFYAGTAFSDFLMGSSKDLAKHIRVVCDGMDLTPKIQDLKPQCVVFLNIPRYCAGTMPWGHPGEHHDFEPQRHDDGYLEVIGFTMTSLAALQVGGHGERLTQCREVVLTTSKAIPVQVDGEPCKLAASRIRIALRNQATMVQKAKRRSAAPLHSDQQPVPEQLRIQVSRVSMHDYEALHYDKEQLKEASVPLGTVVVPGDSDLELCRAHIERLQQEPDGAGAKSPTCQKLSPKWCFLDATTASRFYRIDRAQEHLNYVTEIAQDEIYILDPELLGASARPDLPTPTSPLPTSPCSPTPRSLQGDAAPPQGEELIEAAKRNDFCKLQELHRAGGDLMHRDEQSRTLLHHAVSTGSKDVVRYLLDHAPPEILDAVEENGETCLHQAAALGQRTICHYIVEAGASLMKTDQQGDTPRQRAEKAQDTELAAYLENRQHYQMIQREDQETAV", "experiment": "Human DGKζ kinase activity inhibition assay (ADP-Glo)", "type": "biochemical", "details": "intermediates (lacking the R2 side chain; comparative); highest test concentration 20 μM; read-out: IC50 values of intermediates in in vitro human DGKζ kinase activity inhibition assays", "method": "(§1) Human DGKζ Kinase Activity Inhibition Assay\n(§2) Human diacylglycerol kinase zeta (DGKζ) inhibitory activity of compounds of the present invention was quantified employing the human DGKζ kinase activity assay as described in the following paragraphs. In essence, the enzyme activity was measured by quantification of the adenosine-di-phosphate (ADP) generated as a co-product of the enzyme reaction via the “ADP-Glo™ Kinase Assay” kit from the company Promega. This detection system works as follows: In a first step the adenosine-tri-phosphate (ATP) not consumed in the kinase reaction is quantitatively converted to cyclic adenosine-mono-phosphate (cAMP) employing an adenylate cyclase (“ADP-Glo-reagent”), then the adenylate cyclase is stopped and the ADP generated in the kinase reaction is converted to ATP, which subsequently generates in a luciferase-based reaction a glow-luminescence signal (“Kinase Detection Reagent”).\n(§3) C-terminally FLAG-tagged, recombinant full-length human DGKζ (inhouse expressed in baculovirus infected insect cells, purified using anti-Flag pulldown and size exclusion chromatography) was used as enzyme. As an alternative, commercially available enzyme by Carnabio can be used. As substrate for the kinase, 1,2-dioleoyl-sn-glycerol, reconstituted in octyl-β-D-glucopyranoside micelles, was used. […] Subsequently, 22.55 volumes of a 510 mM solution of octyl-β-D-glucopyranoside (Sigma-Aldrich, Cat. #08001-10G) in 50 mM MOPS buffer (pH 7.4) were added, and the mixture was sonicated in an ultrasonic bath for 20 s. Then 35 volumes of 50 mM MOPS buffer (pH 7.4) were added to yield a solution of 0.28 mM 1,2 dioleoyl-sn-glycerol and 200 mM octyl-β-D-glucopyranoside, which was aliquoted, flash-frozen in liquid nitrogen, and stored at −20° C. until use.\n(§4) For the assay 50 nl of a 100-fold concentrated solution of the test compound in dimethyl sulfoxide (DMSO, Sigma) was pipetted into either a white 1536-well or a white low-volume 384-well microtiter plate (both Greiner Bio-One, Frickenhausen, Germany). […] The concentration of DGKζ was adjusted depending of the activity of the enzyme lot and was chosen appropriate to have the assay in the linear range, a typical concentration is about 0.1 nM. The reaction was stopped by the addition of 2.5 μL of “ADP-Glo-reagent” (1 to 1.5 diluted with water) and the resulting mixture was incubated at 22° C. for 1 h to convert the ATP not consumed in the kinase reaction completely to cAMP. Subsequently 2.5 μl of the “kinase detection reagent” (1.2 fold more concentrated than recommended by the producer) were added, the resulting mixture was incubated at 22° C. for 1 h and then the luminescence measured with a suitable measurement instrument (e.g. Viewlux™ from Perkin-Elmer). The amount of emitted light was taken as a measure for the amount of ADP generated and thereby for the activity of the DGKζ.\n(§5) The data were normalised (enzyme reaction without inhibitor=0% inhibition, all other assay components but no enzyme=100% inhibition).", "units": {"IC50": "nM"}, "values": [{"smiles": "COc1ccc(Nc2nc(N)c(C(=O)c3ccccc3)s2)cc1", "note": "[Example 67]", "IC50": "> 20000"}, {"smiles": "Cc1ccc(C(=O)c2sc(Nc3ccc(F)cc3)nc2N)cc1", "note": "[Example 64]", "IC50": "> 20000"}, {"smiles": "Nc1nc(Nc2ccc(F)cc2)sc1C(=O)c1ccccc1", "note": "[Example 62]", "IC50": "> 20000"}, {"smiles": "Nc1nc(Nc2ccc(F)cc2)sc1C(=O)c1ccc(F)cc1", "note": "[Example 65]", "IC50": "> 20000"}]}, {"molecular_target": "T1, human DGKζ", "experiment": "Human DGKζ kinase activity inhibition assay (ADP-Glo)", "type": "biochemical", "details": "recombinant full-length human DGKζ, 55 μM ATP, 7 μM 1,2-dioleoyl-sn-glycerol, 20 min at 22° C.; read-out: IC50 in vitro human DGKζ kinase activity inhibition assay", "method": "as §1, §2, §3, §4, §5", "units": {"IC50": "nM"}, "values": [{"smiles": "Cc1nc(N(c2ccc(F)cc2)C(C)C(N)=O)sc1C(=O)c1ccc(OC(F)F)cc1", "note": "(racemic) [Example 54]", "IC50": 20.7}, {"smiles": "CC(C)NC(=O)COc1ccc(C(=O)c2sc(N(c3ccc(F)cc3)C(C)C(N)=O)nc2N)cc1", "note": "(single isomer, unassigned) [Example 152, 2-(N-[4-amino-5-[4-[2-(isopropylamino)-2-oxo-ethoxy]benzoyl]thiazol-2-yl]-4-fluoro-anilino)propanamide]", "IC50": 111}, {"smiles": "CC(C(N)=O)N(c1ccc(F)c(F)c1)c1nc(N)c(C(=O)c2ccc(OC(F)F)nc2)s1", "note": "(single isomer, unassigned) [Example 163.1, 2-(N-[4-amino-5-[6-(difluoromethoxy)pyridine-3-carbonyl]thiazol-2-yl]-3,4-difluoro-anilino)propanamide]", "IC50": 5}, {"smiles": "CC(C(N)=O)N(c1ccc(F)cc1)c1nc(N)c(C(=O)c2ccc(OCC(=O)Nc3ccc(C(N)=O)cc3)cc2)s1", "note": "(single isomer, unassigned) [Example 146, 4-([2-[4-[4-amino-2-(4-fluoro-N-[2-amino-1-methyl-2-oxo-ethyl]anilino)thiazole-5-carbonyl]phenoxy]acetyl]amino]benzamide]", "IC50": 21.6}, {"smiles": "COc1ccc(C(=O)c2sc(N(c3ccc(F)cc3)C(C)C(N)=O)nc2C)cc1", "note": "(single isomer, unassigned) [Example 176.1, 2-(4-fluoro-N-[5-(4-methoxybenzoyl)-4-methyl-thiazol-2-yl]anilino)propanamide]", "IC50": 34}, {"smiles": "CC(C(N)=O)N(c1ccc(F)cc1)c1nc(N)c(C(=O)c2ccc(Cl)cc2)s1", "note": "(single isomer, unassigned) [Example 38.2, 2-(N-[4-amino-5-(4-chlorobenzoyl)thiazol-2-yl]-4-fluoro-anilino)propanamide]", "IC50": 7.37}, {"smiles": "CC(C(N)=O)N(c1nc(N)c(C(=O)c2ccccc2)s1)c1ccccc1F", "note": "(single isomer, unassigned) [Example 75.2, 2-(N-(4-amino-5-benzoyl-thiazol-2-yl)-2-fluoro-anilino)propanamide]", "IC50": 214}, {"smiles": "COc1ccc(C(=O)c2sc(N(c3ccc(F)c(F)c3)C(C)C(N)=O)nc2N)cc1", "note": "(single isomer, unassigned) [Example 51.2, 2-(N-[4-amino-5-(4-methoxybenzoyl)thiazol-2-yl]-3,4-difluoro-anilino)propanamide]", "IC50": 872}, {"smiles": "COc1ccc(C(=O)c2sc(N(c3ccc(Cl)c(F)c3)C(C)C(N)=O)nc2N)cn1", "note": "(single isomer, unassigned) [Example 172.1, 2-(N-[4-amino-5-(6-methoxypyridine-3-carbonyl)thiazol-2-yl]-4-chloro-3-fluoro-anilino)propanamide]", "IC50": 24}, {"smiles": "COc1ccc(C(=O)c2sc(N(c3ccc(F)c(F)c3)C(C)C(N)=O)nc2N)cc1", "note": "(single isomer, unassigned) [Example 51.1, 2-(N-[4-amino-5-(4-methoxybenzoyl)thiazol-2-yl]-3,4-difluoro-anilino)propanamide]", "IC50": 8.85}, {"smiles": "CC(C(N)=O)N(c1ccc(Cl)c(F)c1)c1nc(N)c(C(=O)c2ccncc2)s1", "note": "(single isomer, unassigned) [Example 56.2, 2-(N-[4-amino-5-(pyridine-4-carbonyl)thiazol-2-yl]-4-chloro-3-fluoro-anilino)propanamide]", "IC50": 7640}, {"smiles": "CC(C(N)=O)N(c1ccc(F)cc1)c1nc(N)c(C(=O)c2ccc(OCC(=O)NCCC34CC5CC(CC(C5)C3)C4)cc2)s1", "note": "(single isomer, unassigned) [Example 144]", "IC50": 8.79}, {"smiles": "CC(C(N)=O)N(c1ccc(Cl)c(F)c1)c1nc(N)c(C(=O)c2ccc(OCc3ccccc3)cc2)s1", "note": "(single isomer, unassigned) [Example 166.1, 2-(N-[4-amino-5-(4-benzyloxybenzoyl)thiazol-2-yl]-4-chloro-3-fluoro-anilino)propanamide]", "IC50": 2}, {"smiles": "CNC(=O)COc1ccc(C(=O)c2sc(N(c3ccc(F)cc3)C(C)C(N)=O)nc2N)cc1", "note": "(single isomer, unassigned) [Example 150, 2-(N-[4-amino-5-[4-[2-(methylamino)-2-oxo-ethoxy]benzoyl]thiazol-2-yl]-4-fluoro-anilino)propanamide]", "IC50": 372}, {"smiles": "CC(C(N)=O)N(c1ccc(F)c(F)c1)c1nc(N)c(C(=O)c2ccc(NC(=O)OCc3ccccc3)cc2)s1", "note": "(single isomer, unassigned) [Example 167.1, Benzyl N-[4-[4-amino-2-(N-(2-amino-1-methyl-2-oxo-ethyl)-3,4-difluoro-anilino)thiazole-5-carbonyl]phenyl]carbamate]", "IC50": 3}, {"smiles": "CC(C(N)=O)N(c1ccc(F)cc1)c1nc(N)c(C(=O)c2ccc(OCC(=O)Nc3ccc(Cl)cc3)cc2)s1", "note": "(single isomer, unassigned) [Example 145, 2-(N-[4-amino-5-[4-[2-(4-chloroanilino)-2-oxo-ethoxy]benzoyl]thiazol-2-yl]-4-fluoro-anilino)propanamide]", "IC50": 2.66}, {"smiles": "CC(C(N)=O)N(c1ccc(F)cc1)c1nc(N)c(C(=O)c2ccc(OCc3ccccc3)cc2)s1", "note": "(single isomer, unassigned) [Example 170.2, 2-(N-[4-amino-5-(4-benzyloxybenzoyl)thiazol-2-yl]-4-fluoro-anilino)propanamide]", "IC50": 1000}, {"smiles": "CC(C(N)=O)N(c1ccc(F)cc1)c1nc(N)c(C(=O)c2ccc(OCC(=O)NCC34CC5CC(CC(C5)C3)C4)cc2)s1", "note": "(single isomer, unassigned) [Example 143, 2-(N-[5-[4-[2-(1-adamantylmethylamino)-2-oxo-ethoxy]benzoyl]-4-amino-thiazol-2-yl]-4-fluoro-anilino)propanamide]", "IC50": 12.7}, {"smiles": "CC(C(N)=O)N(c1ccc(F)cc1)c1nc(N)c(C(=O)c2ccc(OCC(N)=O)cc2)s1", "note": "(single isomer, unassigned) [Example 149, 2-(N-[4-amino-5-[4-(2-amino-2-oxo-ethoxy)benzoyl]thiazol-2-yl]-4-fluoro-anilino)propanamide]", "IC50": 405}, {"smiles": "CC(C(N)=O)N(c1ccc(F)c(F)c1)c1nc(N)c(C(=O)c2ccc(OC(F)F)cc2)s1", "note": "(single isomer, unassigned) [Example 49.1, 2-(N-[4-amino-5-[4-(difluoromethoxy)benzoyl]thiazol-2-yl]-3,4-difluoro-anilino)propanamide]", "IC50": 1030}, {"smiles": "CC(C(N)=O)N(c1ccc(Cl)c(F)c1)c1nc(N)c(C(=O)c2ccc(OC(F)F)nc2)s1", "note": "(single isomer, unassigned) [Example 164.2, 2-(N-[4-amino-5-[6-(difluoromethoxy)pyridine-3-carbonyl]thiazol-2-yl]-4-chloro-3-fluoro-anilino)propanamide]", "IC50": 944}, {"smiles": "CC(C(N)=O)N(c1ccc(F)c(Cl)c1)c1nc(N)c(C(=O)c2ccncc2)s1", "note": "(single isomer, unassigned) [Example 160.1, 2-(N-[4-amino-5-(pyridine-4-carbonyl)thiazol-2-yl]-3-chloro-4-fluoro-anilino)propanamide]", "IC50": 115}, {"smiles": "CC(C)NC(=O)COc1ccc(C(=O)c2sc(N(c3ccc(F)cc3)C(C)C(N)=O)nc2N)cc1", "note": "(single isomer, unassigned) [Example 153, 2-(N-[4-amino-5-[4-[2-(isopropylamino)-2-oxo-ethoxy]benzoyl]thiazol-2-yl]-4-fluoro-anilino)propanamide]", "IC50": 107}, {"smiles": "CNC(=O)COc1ccc(C(=O)c2sc(N(c3ccc(F)cc3)C(C)C(N)=O)nc2N)cc1", "note": "(single isomer, unassigned) [Example 151, 2-(N-[4-amino-5-[4-[2-(methylamino)-2-oxo-ethoxy]benzoyl]thiazol-2-yl]-4-fluoro-anilino)propanamide]", "IC50": 387}]}]}
